The values below come from PMC7206119, “RIP1 inhibition blocks inflammatory diseases but not tumor growth or metastases” (Cell Death and Differentiation, 2019).

What all share (test): biochemical
Holding throughout (set-up): DiscoverX kinase panel, active-site competition binding (KINOMEscan type), percent of control at one concentration
Holding throughout (conditions): competition binding, percent of control

In test [1] the target is T1, ABL1(T315I)-nonphosphorylated (Homo sapiens, UniProt P00519, T315I).
T1 construct: nonphosphorylated

Test [2] deals with ABL2 (Homo sapiens, UniProt P42684).
The target of test [3] is T2, ADCK4 (Homo sapiens, UniProt Q96D53).
T2 construct: gene COQ8B

Test [4] has as its target CDKL1 (Homo sapiens, UniProt Q00532).
The target in test [5] is T3, CTK (Homo sapiens, UniProt P42679).
T3 construct: gene MATK

Test [6] deals with EGFR(G719S) (Homo sapiens, UniProt P00533, G719S).
Sequence of EGFR(G719S) (P00533 whole entry G719S): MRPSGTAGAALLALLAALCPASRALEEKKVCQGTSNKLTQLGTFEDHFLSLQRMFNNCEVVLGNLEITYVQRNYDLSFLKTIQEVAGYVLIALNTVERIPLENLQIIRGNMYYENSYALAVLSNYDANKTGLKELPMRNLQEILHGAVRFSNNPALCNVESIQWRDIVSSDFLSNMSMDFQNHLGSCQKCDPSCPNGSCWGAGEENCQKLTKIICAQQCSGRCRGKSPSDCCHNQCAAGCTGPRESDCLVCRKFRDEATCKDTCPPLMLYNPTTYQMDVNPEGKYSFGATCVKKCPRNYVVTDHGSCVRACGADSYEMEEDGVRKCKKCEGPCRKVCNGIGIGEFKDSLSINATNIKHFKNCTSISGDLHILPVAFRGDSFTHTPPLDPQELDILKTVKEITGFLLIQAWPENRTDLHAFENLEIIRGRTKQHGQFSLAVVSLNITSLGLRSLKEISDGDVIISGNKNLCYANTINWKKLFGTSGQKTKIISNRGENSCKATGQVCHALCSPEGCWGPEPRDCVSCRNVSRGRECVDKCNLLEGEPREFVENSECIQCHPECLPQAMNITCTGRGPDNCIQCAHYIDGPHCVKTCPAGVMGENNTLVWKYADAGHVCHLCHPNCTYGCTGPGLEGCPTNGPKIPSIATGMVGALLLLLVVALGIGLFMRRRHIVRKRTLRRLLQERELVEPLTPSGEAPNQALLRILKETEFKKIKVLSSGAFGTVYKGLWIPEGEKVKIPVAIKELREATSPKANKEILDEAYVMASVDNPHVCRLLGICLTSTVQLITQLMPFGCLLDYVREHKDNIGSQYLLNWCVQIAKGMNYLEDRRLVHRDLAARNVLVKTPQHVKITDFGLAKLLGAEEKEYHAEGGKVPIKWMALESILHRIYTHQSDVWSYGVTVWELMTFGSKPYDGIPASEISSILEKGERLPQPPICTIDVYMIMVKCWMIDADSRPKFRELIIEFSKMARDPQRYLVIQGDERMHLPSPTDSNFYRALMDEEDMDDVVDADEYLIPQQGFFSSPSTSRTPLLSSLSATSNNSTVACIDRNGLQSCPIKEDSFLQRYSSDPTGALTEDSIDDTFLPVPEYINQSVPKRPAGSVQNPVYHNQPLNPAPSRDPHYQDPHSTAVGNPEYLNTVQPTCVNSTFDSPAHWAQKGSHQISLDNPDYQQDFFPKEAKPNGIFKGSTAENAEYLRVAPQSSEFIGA
The target of test [7] is HASPIN (Homo sapiens, UniProt Q8TF76).
For test [8], the target named is INSR (Homo sapiens, UniProt P06213).
For test [9], the target named is KIT(A829P) (Homo sapiens, UniProt P10721, A829P).
Sequence of KIT(A829P) (P10721 whole entry A829P): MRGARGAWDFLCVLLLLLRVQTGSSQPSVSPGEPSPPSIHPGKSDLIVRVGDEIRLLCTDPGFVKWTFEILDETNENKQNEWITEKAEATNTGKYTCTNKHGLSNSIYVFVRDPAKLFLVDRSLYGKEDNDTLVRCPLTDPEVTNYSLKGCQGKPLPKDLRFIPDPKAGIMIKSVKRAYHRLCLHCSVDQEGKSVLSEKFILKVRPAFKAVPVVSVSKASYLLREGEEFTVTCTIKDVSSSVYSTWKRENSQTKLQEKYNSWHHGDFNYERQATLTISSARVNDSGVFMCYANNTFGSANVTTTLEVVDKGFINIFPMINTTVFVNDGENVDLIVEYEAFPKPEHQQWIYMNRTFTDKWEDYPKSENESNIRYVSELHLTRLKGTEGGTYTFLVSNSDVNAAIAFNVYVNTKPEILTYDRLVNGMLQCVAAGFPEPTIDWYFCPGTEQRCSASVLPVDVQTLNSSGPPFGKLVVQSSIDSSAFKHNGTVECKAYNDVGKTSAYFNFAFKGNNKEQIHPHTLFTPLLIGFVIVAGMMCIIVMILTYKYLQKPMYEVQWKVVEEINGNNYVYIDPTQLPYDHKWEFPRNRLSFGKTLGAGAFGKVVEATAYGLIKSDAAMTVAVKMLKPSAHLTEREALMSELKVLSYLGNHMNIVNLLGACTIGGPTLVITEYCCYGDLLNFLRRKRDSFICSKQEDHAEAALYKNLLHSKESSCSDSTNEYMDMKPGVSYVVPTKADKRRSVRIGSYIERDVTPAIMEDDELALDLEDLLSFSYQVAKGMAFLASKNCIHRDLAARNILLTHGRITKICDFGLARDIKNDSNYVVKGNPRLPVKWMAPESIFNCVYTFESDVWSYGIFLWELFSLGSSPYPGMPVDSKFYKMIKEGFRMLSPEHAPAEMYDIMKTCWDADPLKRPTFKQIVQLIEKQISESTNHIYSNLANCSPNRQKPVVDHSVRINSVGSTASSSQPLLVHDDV
For test [10], the target named is LATS1 (Homo sapiens, UniProt O95835).
Test [11] addresses MAP4K4 (Homo sapiens, UniProt O95819).
Test [12] deals with NEK7 (Homo sapiens, UniProt Q8TDX7).
Test [13] addresses T4, PCTK3 (Homo sapiens, UniProt Q07002).
T4 construct: gene CDK18

Test [14] deals with PRKG2 (Homo sapiens, UniProt Q13237).
Sequence of PRKG2 (Q13237 whole entry): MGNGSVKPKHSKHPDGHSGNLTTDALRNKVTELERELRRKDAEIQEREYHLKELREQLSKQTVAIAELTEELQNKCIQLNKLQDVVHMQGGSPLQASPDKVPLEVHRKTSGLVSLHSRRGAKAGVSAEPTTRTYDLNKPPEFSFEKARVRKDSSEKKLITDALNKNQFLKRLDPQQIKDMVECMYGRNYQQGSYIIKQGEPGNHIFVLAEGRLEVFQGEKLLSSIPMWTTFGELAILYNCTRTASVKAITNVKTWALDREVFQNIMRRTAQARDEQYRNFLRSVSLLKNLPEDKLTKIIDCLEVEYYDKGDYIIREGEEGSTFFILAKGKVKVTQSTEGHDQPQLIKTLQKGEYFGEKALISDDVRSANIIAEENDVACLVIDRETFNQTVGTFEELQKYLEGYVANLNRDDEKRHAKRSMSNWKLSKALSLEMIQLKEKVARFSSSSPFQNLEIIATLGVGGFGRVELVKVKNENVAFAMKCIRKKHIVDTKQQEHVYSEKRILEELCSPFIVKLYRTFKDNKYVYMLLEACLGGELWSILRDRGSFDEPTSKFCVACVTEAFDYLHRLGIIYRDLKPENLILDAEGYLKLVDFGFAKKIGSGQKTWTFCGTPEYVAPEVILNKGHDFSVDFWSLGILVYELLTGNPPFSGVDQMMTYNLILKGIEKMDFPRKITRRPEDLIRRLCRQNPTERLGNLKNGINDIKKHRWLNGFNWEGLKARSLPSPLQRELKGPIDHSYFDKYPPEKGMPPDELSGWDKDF
In test [15] the target is T5, RIPK5 (Homo sapiens, UniProt Q6XUX3).
T5 construct: gene DSTYK
T5 sequence (Q6XUX3 whole entry): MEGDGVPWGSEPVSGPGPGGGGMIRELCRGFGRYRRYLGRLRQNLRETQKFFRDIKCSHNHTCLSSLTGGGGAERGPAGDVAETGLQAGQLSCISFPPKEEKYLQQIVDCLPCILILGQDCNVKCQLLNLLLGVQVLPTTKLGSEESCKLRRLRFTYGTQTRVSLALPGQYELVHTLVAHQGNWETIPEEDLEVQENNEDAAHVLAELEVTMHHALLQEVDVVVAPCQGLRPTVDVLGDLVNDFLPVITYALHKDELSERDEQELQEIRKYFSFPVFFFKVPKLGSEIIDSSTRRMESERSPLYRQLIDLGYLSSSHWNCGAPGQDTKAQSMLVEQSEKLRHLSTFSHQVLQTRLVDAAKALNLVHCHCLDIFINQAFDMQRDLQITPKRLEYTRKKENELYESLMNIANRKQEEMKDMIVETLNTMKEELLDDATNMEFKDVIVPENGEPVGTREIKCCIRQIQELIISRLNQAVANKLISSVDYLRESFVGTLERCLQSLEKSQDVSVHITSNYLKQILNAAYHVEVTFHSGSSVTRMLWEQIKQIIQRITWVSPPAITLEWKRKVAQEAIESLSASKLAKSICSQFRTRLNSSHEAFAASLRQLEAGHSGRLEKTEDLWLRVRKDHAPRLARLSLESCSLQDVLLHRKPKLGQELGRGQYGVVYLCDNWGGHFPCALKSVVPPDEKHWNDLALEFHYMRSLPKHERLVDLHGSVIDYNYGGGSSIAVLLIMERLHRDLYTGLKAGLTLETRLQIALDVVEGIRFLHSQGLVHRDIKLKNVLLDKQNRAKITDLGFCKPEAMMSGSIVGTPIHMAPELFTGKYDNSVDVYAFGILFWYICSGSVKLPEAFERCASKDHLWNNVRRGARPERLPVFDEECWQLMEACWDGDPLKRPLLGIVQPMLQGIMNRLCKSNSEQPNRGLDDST

Test [16] deals with SLK (Homo sapiens, UniProt Q9H2G2).
Test [17] has as its target STK35 (Homo sapiens, UniProt Q8TDR2).
In test [18] the target is T6, SgK110 (Homo sapiens, UniProt P0C264).
T6 construct: gene SBK3
T6 sequence (P0C264 whole entry): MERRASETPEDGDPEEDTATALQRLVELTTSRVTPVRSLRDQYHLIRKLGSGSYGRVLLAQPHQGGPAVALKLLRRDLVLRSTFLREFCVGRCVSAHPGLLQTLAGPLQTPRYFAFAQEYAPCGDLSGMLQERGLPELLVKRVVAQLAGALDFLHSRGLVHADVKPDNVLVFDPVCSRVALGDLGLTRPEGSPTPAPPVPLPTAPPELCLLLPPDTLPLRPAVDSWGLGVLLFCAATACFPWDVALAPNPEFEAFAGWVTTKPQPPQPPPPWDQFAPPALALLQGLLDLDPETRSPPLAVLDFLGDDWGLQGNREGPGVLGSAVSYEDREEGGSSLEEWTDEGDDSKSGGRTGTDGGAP

Test [19] has as its target TGFBR1 (Homo sapiens, UniProt P36897).
For test [20], the target named is TRPM6 (Homo sapiens, UniProt Q9BX84).
Test [21] deals with ULK2 (Homo sapiens, UniProt Q8IYT8).

T4 sequence (Q07002 whole entry): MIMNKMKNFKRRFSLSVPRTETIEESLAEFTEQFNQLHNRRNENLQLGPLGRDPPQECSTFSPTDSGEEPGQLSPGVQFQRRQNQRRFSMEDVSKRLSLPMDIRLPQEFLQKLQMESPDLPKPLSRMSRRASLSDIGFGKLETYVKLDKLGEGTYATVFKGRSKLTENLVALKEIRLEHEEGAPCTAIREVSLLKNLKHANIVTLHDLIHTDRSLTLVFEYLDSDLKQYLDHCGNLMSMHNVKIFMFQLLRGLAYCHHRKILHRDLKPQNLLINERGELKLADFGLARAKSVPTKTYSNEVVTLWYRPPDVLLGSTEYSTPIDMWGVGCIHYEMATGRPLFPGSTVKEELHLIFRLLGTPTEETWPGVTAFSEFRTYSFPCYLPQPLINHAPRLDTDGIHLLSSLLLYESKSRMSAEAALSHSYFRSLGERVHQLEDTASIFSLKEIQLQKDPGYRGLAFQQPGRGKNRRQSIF
Sequence of CDKL1 (Q00532 whole entry): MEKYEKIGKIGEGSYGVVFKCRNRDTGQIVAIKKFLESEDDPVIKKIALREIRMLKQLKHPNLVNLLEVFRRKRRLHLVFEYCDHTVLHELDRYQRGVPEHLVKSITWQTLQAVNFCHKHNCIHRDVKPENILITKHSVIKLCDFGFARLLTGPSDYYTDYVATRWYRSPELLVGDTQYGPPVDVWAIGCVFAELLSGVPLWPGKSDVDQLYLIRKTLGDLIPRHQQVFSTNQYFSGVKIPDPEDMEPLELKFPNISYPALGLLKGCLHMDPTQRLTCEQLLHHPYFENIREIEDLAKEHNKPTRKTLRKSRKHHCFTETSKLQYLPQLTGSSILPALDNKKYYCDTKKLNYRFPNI

`COc1cc2c(cn1)N(C)C(=O)[C@@H](NC(=O)c1nc3n(n1)[C@H](c1ccccc1)CC3)CC2` [GNE684, (S)-N-((S)-7-methoxy-1-methyl-2-oxo-2,3,4,5-tetrahydro-1H-pyrido[3,4-b]azepin-3-yl)-5-phenyl-6,7-dihydro-5H-pyrrolo[1,2-b][1,2,4]triazole-2-carboxamide]: the remaining binding at 10 µM stood at 73% in test [1]; 100% in test [2]; 100% in [3]; 74% in [4]; 93% in [5]; 100% in test [6]. The remaining binding at 10 µM in test [7] was found to be 100%; in test [8] it was 90%; in test [9] it was 100%; in test [10] it was 89%; in [11] it was 73%; in test [12], 97%. Further, the remaining binding at 10 µM is 94% in test [13]; 94% in test [14]; 48% in test [15]; 100% in test [16]; 100% in test [17]; 67% in test [18]. Further, the remaining binding at 10 µM turned out to be 97% in [19], 87% in test [20] and 100% in [21].
